Measured values published in US8110565B2, “Enhanced drug delivery in transdermal systems” (Noven Pharmaceuticals, Inc., priority 2001, dated 2012).

Assays:
[1] = Flux of ramipril, its ester prodrugs and their combinations from carrier formulations (FIGS. 8, 9); assay type: in vitro ADME
Text: (§1) Prodrug effects on flux were also studied using an ace inhibitor drug, ramipril. Flux rates of two corresponding prodrugs—ramipril methyl ester and ramipril ethyl ester—were compared prior to combining with the parent drug. […] In either event, the use of an ester prodrug in place of the parent drug can achieve, at the very least, over a 10 fold increase in flux (see ramipril flux (▴) in FIG. 8—only 15% ramipril could be solubilized without forming crystals—versus ramipril ethyl ester flux without enhancers (Δ) in FIG. 9). Use of non-functional or hydroxy functional adhesives are also preferred. However, when both ramipril and a corresponding prodrug are combined in the formulations containing enhancers, an even higher flux can be obtained.

[2] = Amount of ramipril solubilized in the carrier formulation without forming crystals; assay type: physicochemical
Text: as §1, with “preferred.” for “preferred. However, when both ramipril and a corresponding prodrug are combined in the formulations containing enhancers, an even higher flux can be obtained.”

SMILES: CCOC(=O)C(CCc1ccccc1)NC(C)C(=O)N1C(C(=O)OCC)CC2CCCC21 (stereo not shown) [ramipril ethyl ester]
- increase in flux over the parent drug ramipril ([1]; ester without enhancers (FIG. 9) versus 15% ramipril (FIG. 8)): > 10 fold

SMILES: CCOC(=O)[C@H](CCc1ccccc1)N[C@@H](C)C(=O)N1[C@H](C(=O)OC)C[C@@H]2CCC[C@@H]21 [ramipril methyl ester]
- flux compared with the ethyl ester derivative [1]: fluxed higher
- flux higher than the ethyl ester prodrug ([1]; without permeation enhancers, 20% drug, 20% polyacrylate adhesive, 60% polysiloxane adhesive, FIG. 9): 73%

SMILES: CCOC(=O)[C@H](CCc1ccccc1)N[C@@H](C)C(=O)N1[C@H](C(=O)O)C[C@@H]2CCC[C@@H]21 [ramipril]
- ramipril that could be solubilized without forming crystals [2]: 15%
